Experimental data from publication PMC10488193, “Evaluation of the Chemical Stability, Membrane Permeability and Antiproliferative Activity of Cyclic Diarylheptanoids from European Hornbeam (Carpinus betulus L.)” (International Journal of Molecular Sciences, 2023).
“And” between values parts separate entries of the source, which are not always exact repeats. Equal values may be shown once. “Also recorded” adds a separate entry of the source. Read-outs that look alike come from different tables or passages of the source. Marks after values point to notes of the source that are not given here.

How the values were obtained:
[1] = Aqueous stability at biorelevant pH values, 37 °C (UHPLC-DAD); type: physicochemical; settings: for half-life at 100 µM / degradation rate constant k: first-order; for half-life at 100 µM: read-out: half-life t1/2 (converted)
Procedure: (§1) For the analysis of the samples from the chemical stability as well as the PAMPA studies, sample concentrations were determined using our previously developed ultrahigh-performance liquid chromatography–diode array detection (UHPLC-DAD) method validated for linearity, precision and accuracy. Briefly, an ACQUITY UPLC H-Class PLUS System hyphenated with a quaternary solvent delivery pump (QSM), an auto-sampler manager (FTN), a column compartment (CM) and a photodiode array (PDA) detector (Waters Corporation) was employed. Stationary phase: Acquity BEH C18 column (100 × 2.1 mm i.d., 1.7 µm; Waters Corporation), column temperature: 30 °C. The mobile phase consisted of 0.3% acetic acid in water (eluent A) and acetonitrile (eluent B). The following gradient elution was applied at a flow rate of 0.3 mL/min: 0 min 12.0% B, 19.0 min 13.5% B, 25.5 min 75.0% B, 26.0 min 100.0% B, 28.0 min 100.0% B, 28.5 min 12.0% B.
The buffers modelling the gastric fluid (pH 1.2), the intestinal fluid (pH 6.8) and the blood and the tissues (pH 7.4) were prepared as follows. Buffer pH = 1.2: 1.0 g NaCl and 3.5 mL HCl dissolved in distilled water, final volume: 500.0 mL. Buffer pH = 6.8: 20.2 g Na2HPO4∙7H2O and 3.4 g NaH2PO4∙H2O dissolved in distilled water, final volume: 1000.0 mL, pH adjustment with 0.5 M NaOH or 0.5 M HCl. Buffer pH = 7.4: one PBS tablet dissolved in 200.0 mL distilled water. The stock solutions of compounds 1–4 were prepared with dimethyl sulfoxide (DMSO) at a concentration of 10.0 mM. The stock solutions were diluted 100-fold with each buffer separately to obtain the working solutions (297.0 μL buffer + 3.0 μL stock solution). All working solutions were filtered through Phenex-RC 15 mm, 0.2 μm syringe filters (Gen-Lab Ltd., Budapest, Hungary). The samples were incubated for 81 h at 37 °C; aliquots were taken for analysis every 9 h in accordance with the time required to quantify the analytes of interest in one set of samples. The total incubation time of 81 h was applied to obtain data for ten measurement points. The previously described UHPLC-DAD method was used to examine the changes in compound concentrations (see Section 3.4).
For the determination of pH stability, the initial AUC values were compared with the data after 9 and 81 h using paired-sample t test; significant difference was reported at p < 0.05. The effects of the pH were analysed through one-way analysis of variance (ANOVA) followed by Tukey’s post hoc HSD test (p < 0.05). All experiments were performed in triplicates (n = 3).
(§2) We used the following equations to calculate the first-order reaction rate constant (k) and the half-life (t1/2) indicating the time required to reduce the concentration of diarylheptanoids by 50% [29]:ln (ct/c0) = −k × t(1) t1/2 = −ln 0.5 × k^−1(2) where ct is the concentration of the diarylheptanoids at time t, c0 is the initial concentration, k is the reaction rate constant, t is the treatment time.

[2] = Storage stability in solutions and hornbeam bark extracts (UHPLC-DAD); type: physicochemical; settings: for k / t1/2: storage 23 weeks
Procedure: as §1, §2
The chemical stability of the isolated compounds in solutions was examined at a concentration of 50 µg/mL in methanol and water (in the latter case using methanol as co-solvent, final composition: water-methanol 90:10, v/v). Furthermore, the methanol and ethyl acetate extracts of C. betulus bark (concentration 4 mg/mL) were also studied in order to assess the effects of the accompanying substances. The storage stability studies were performed at a neutral pH value. All solutions were filtered through Phenex-RC 15 mm, 0.2 μm syringe filters (Gen-Lab Ltd., Budapest, Hungary). The samples were prepared in triplicate and stored protected from light at 22 ± 2.0 °C, 5 ± 1.5 °C and −15 ± 2.0 °C for 23 weeks. Quantities of the analytes of interest were quantified at weeks 12 and 23 using the abovementioned UHPLC-DAD method (see Section 3.4).
The effects of the temperature and the medium (i.e., solvent and accompanying substances) were analysed through one-way analysis of variance (ANOVA) followed by Tukey’s post hoc HSD test (p < 0.05). To establish the kinetic parameters t1/2 and k, Equations (1) and (2) were applied, respectively.

[3] = sodium phosphate buffer, pH 6.8, 37 °C
[4] = 12 weeks, 5 °C, EE (ethyl acetate extract of bark)
[5] = 12 weeks, 5 °C, EM (methanol extract of bark)
[6] = 12 weeks, 5 °C, SA (aqueous solution)
[7] = 12 weeks, 5 °C, SM (methanol solution)
[8] = 12 weeks, 22 °C, EE (ethyl acetate extract of bark)
[9] = 12 weeks, 22 °C, EM (methanol extract of bark)
[10] = 12 weeks, 22 °C, SA (aqueous solution)
[11] = 12 weeks, 22 °C, SM (methanol solution)
[12] = 12 weeks, −15 °C, EE (ethyl acetate extract of bark)
[13] = 12 weeks, −15 °C, EM (methanol extract of bark)
[14] = 12 weeks, −15 °C, SA (aqueous solution)
[15] = 12 weeks, −15 °C, SM (methanol solution)
[16] = 23 weeks, 5 °C, EE (ethyl acetate extract of bark)
[17] = 23 weeks, 5 °C, EM (methanol extract of bark)
[18] = 23 weeks, 5 °C, SA (aqueous solution)
[19] = 23 weeks, 5 °C, SM (methanol solution)
[20] = 23 weeks, 22 °C, EE (ethyl acetate extract of bark)
[21] = 23 weeks, 22 °C, EM (methanol extract of bark)
[22] = 23 weeks, 22 °C, SA (aqueous solution)
[23] = 23 weeks, 22 °C, SM (methanol solution)
[24] = 23 weeks, −15 °C, EE (ethyl acetate extract of bark)
[25] = 23 weeks, −15 °C, EM (methanol extract of bark)
[26] = 23 weeks, −15 °C, SA (aqueous solution)
[27] = 23 weeks, −15 °C, SM (methanol solution)

## O=C1CCc2ccc(O)c(c2)-c2cc(ccc2O)C[C@@H](O)[C@H](O)C1 [Compound 3, giffonin X]
[1]; 9 h, pH 1.2, 37 °C
  relative concentration compared to the initial value: 100.6 ± 6.9 ^a %
[1]; 9 h, pH 6.8, 37 °C
  relative concentration compared to the initial value: 98.9 ± 0.8 ^a %
[1]; 9 h, pH 7.4, 37 °C
  relative concentration compared to the initial value: 82.6 ± 7.7 ^#b %
[1]; 81 h, pH 1.2, 37 °C
  relative concentration compared to the initial value: 83.4 ± 5.3% and 83.4 ± 5.3 ^#b %
[1]; 81 h, pH 6.8, 37 °C
  relative concentration compared to the initial value: 93.2 ± 2.0% and 93.2 ± 2.0 ^#ab %
[1]; 81 h, pH 7.4, 37 °C
  relative concentration compared to the initial value: 46.7 ± 4.7 %
[1]; NaCl/HCl buffer, pH 1.2, 37 °C
  half-life at 100 µM: 12.4 days
[1]; PBS, pH 7.4, 37 °C
  half-life at 100 µM: 3.4 days
[1]; pH 1.2, 37 °C
  degradation rate constant k: 0.00232 h⁻¹
[1]; pH 6.8, 37 °C
  degradation rate constant k: 0.000838 h⁻¹
[1]; pH 7.4, 37 °C
  degradation rate constant k: 0.00849 h⁻¹
[1]; [3]
  half-life at 100 µM: 34.5 days
[2]; 5 °C, SA (aqueous solution)
  k: 5.0 × 10^−4 Week^−1
  t1/2: 1386.29 Week
[2]; 5 °C, SM (methanol solution)
  k: 7.10 × 10^−3 Week^−1
  t1/2: 97.63 Week
[2]; [4]
  concentration as compared to the initial value: 100.8 ± 0.5 ^#bcd %
[2]; [5]
  concentration as compared to the initial value: 100.2 ± 1.1 ^bcd %
[2]; [6]
  concentration as compared to the initial value: 99.3 ± 0.1 ^#bcd %
[2]; [7]
  concentration as compared to the initial value: 99.0 ± 0.1 ^#bcd %
[2]; [8]
  concentration as compared to the initial value: 101.6 ± 2.2 ^#bc %
[2]; [9]
  concentration as compared to the initial value: 102.7 ± 0.9 ^#bc %
[2]; [10]
  concentration as compared to the initial value: 96.2 ± 0.1 ^#bcd %
[2]; [11]
  concentration as compared to the initial value: 84.5 ± 7.4 ^#a %
[2]; [12]
  concentration as compared to the initial value: 103.5 ± 0.2 ^b %
[2]; [13]
  concentration as compared to the initial value: 101.6 ± 3.1 ^#bc %
[2]; [14]
  concentration as compared to the initial value: 100.1 ± 0.6 ^bcd %
[2]; [15]
  concentration as compared to the initial value: 100.4 ± 1.2 ^bcd %
[2]; 22 °C, SA (aqueous solution)
  k: 5.90 × 10^−3 Week^−1
  t1/2: 117.48 Week
[2]; 22 °C, SM (methanol solution)
  k: 1.85 × 10^−2 Week^−1
  t1/2: 37.47 Week
[2]; [16]
  concentration as compared to the initial value: 100.9 ± 1.3 ^bcd %
[2]; [17]
  concentration as compared to the initial value: 93.8 ± 1.3 ^#de %
[2]; [18]
  concentration as compared to the initial value: 99.1 ± 0.1 ^#bcd %
[2]; [19]
  concentration as compared to the initial value: 81.9 ± 1.0 ^#a %
[2]; [20]
  concentration as compared to the initial value: 95.7 ± 0.5 ^#cd %
[2]; [21]
  concentration as compared to the initial value: 95.6 ± 2.4 ^#cd %
[2]; [22]
  concentration as compared to the initial value: 87.6 ± 0.7 ^#ae %
[2]; [23]
  concentration as compared to the initial value: 67.1 ± 7.5 %
[2]; [24]
  concentration as compared to the initial value: 101.1 ± 2.7 ^#bcd %
[2]; [25]
  concentration as compared to the initial value: 97.6 ± 3.2 ^bcd %
[2]; [26]
  concentration as compared to the initial value: 97.9 ± 2.9 ^bcd %
[2]; [27]
  concentration as compared to the initial value: 95.8 ± 0.1 ^#cd %
[2]; −15 °C, SM (methanol solution)
  k: 1.60 × 10^−3 Week^−1
  t1/2: 433.22 Week

## O=C1CCC(=O)C(O)Cc2ccc(O)c(c2)-c2cc(ccc2O)C1 (stereo not shown) [Compound 4, 3,12,17-trihydroxytricyclo [12.3.1.1^2,6]nonadeca-1(18),2(19),3,5,14,16-hexaene-8,11-dione]
[1]; 37 °C, up to 81 h
  aqueous stability at pH 1.2, 6.8, 7.4 (in words): stable only at pH 7.4
[1]; 9 h, pH 1.2, 37 °C
  relative concentration compared to the initial value: 68.5 ± 4.5%
[1]; 9 h, pH 6.8, 37 °C
  relative concentration compared to the initial value: 105.8 ± 2.6 ^a %
[1]; 9 h, pH 7.4, 37 °C
  relative concentration compared to the initial value: 102.0 ± 3.7 ^a %
[1]; 81 h, pH 1.2, 37 °C
  relative concentration compared to the initial value: 31.0 ± 7.0%
[1]; 81 h, pH 6.8, 37 °C
  relative concentration compared to the initial value: 88.9 ± 2.0%
[1]; 81 h, pH 7.4, 37 °C
  relative concentration compared to the initial value: 103.1 ± 2.2 ^a %
[1]; NaCl/HCl buffer, pH 1.2, 37 °C
  half-life at 100 µM: 2.27 days
[1]; pH 1.2, 37 °C
  degradation rate constant k: 0.0127 h⁻¹
[1]; pH 6.8, 37 °C
  degradation rate constant k: 0.00142 h⁻¹
[1]; [3]
  half-life at 100 µM: 20.3 days
[2]; [4]
  concentration as compared to the initial value: 102.0 ± 1.7%
[2]; [5]
  concentration as compared to the initial value: 105.5 ± 2.5%
[2]; [6]
  concentration as compared to the initial value: 100.5 ± 0.7 ^ab %
[2]; [7]
  concentration as compared to the initial value: 100.1 ± 0.6 ^ab %
[2]; [8]
  concentration as compared to the initial value: 106.3 ± 2.6 %
[2]; [9]
  concentration as compared to the initial value: 120.9 ± 2.6 %
[2]; [10]
  concentration as compared to the initial value: 100.8 ± 1.1 ^a %
[2]; [11]
  concentration as compared to the initial value: 100.1 ± 0.5 ^ab %
[2]; [12]
  concentration as compared to the initial value: 103.5 ± 0.8%
[2]; [13]
  concentration as compared to the initial value: 102.8 ± 3.3 %
[2]; [14]
  concentration as compared to the initial value: 98.6 ± 1.3 ^b %
[2]; [15]
  concentration as compared to the initial value: 99.1 ± 0.7 ^ab %
[2]; [16]
  concentration as compared to the initial value: 107.8 ± 2.6 %
[2]; [17]
  concentration as compared to the initial value: 107.0 ± 4.1%
[2]; [18]
  concentration as compared to the initial value: 100.0 ± 0.5 ^ab %
[2]; [19]
  concentration as compared to the initial value: 100.3 ± 0.5 ^ab %
[2]; [20]
  concentration as compared to the initial value: 108.5 ± 2.7 %
[2]; [21]
  concentration as compared to the initial value: 135.7 ± 9.7 %
[2]; [22]
  concentration as compared to the initial value: 100.3 ± 0.6 ^ab %
[2]; [23]
  concentration as compared to the initial value: 100.2 ± 0.5 ^ab %
[2]; [24]
  concentration as compared to the initial value: 108.0 ± 2.2 %
[2]; [25]
  concentration as compared to the initial value: 103.6 ± 3.5%
[2]; [26]
  concentration as compared to the initial value: 99.9 ± 1.2 ^ab %
[2]; [27]
  concentration as compared to the initial value: 99.8 ± 1.2 ^ab %
[2]; SM and SA, −15, 5, 22 °C, weeks 12 and 23
  storage stability in methanol and aqueous solutions (in words): stable; also recorded: good stability
